Patent US11752117B2, “Methods and compositions for diagnosing and treating glaucoma” (priority 2017, dated 2023)

Legend:
[1] = test system: human trabecular meshwork cell; assay: 86Rb efflux from human trabecular meshwork cells; format: cell-based
Description: FIG. 3 depicts, in accordance with embodiments herein, effect of glybenclamide on the efflux of ^86Rb from human trabecular meshwork cell.
FIG. 4 depicts, in accordance with embodiments herein, effect of chlorpromazine on the efflux of ^86Rb from human trabecular meshwork cell.

[2] = test system: sulfonylurea receptor in trabecular meshwork cells; assay: 3H-glibenclamide binding and displacement, bovine trabecular meshwork cells; conditions: on ice, 2 hrs incubation
Method: FIG. 1 depicts, in accordance with embodiments herein, binding of ^3H-glibenclamide to bovine trabecular meshwork cells (2.5×10^5 per 0.5 ml of reaction mixture) at various concentrations of ligand. Red: non-specific binding; green: specific binding. Shown is mean±SD.
FIG. 2 depicts, in accordance with embodiments herein, displacement of ^3H-glibenclamide bound to trabecular meshwork cells (green) and RIN-m5F cells (red) by tolbutamide.
Non-specific binding was determined as the residual binding in the presence of 20 μM non-labeled glibenclamide. After 2 hrs incubation, ^3H-bound glibenclamide was separated from free ^3H-glibenclamide on Whatman GF/F filters soaked in incubation buffer. Specific binding as calculated as the difference between binding in the absence and presence of non-labeled […] glibenclamide (FIG. 1).

rabbits = assay: Effect of KATP channel blockers and openers on intraocular pressure in rabbits; format: in vivo; conditions: 800 μg of blockers, within 1 hour
Description: Tolbutamide, a well-known and world-wide clinically approved drug to treat Type II diabetes, was used as the prototype blocker of the KATP channel. […] Tolbutamide solution decreased IOP not only in glaucomatous patients, but also in patients with elevated IOP after cataract surgery.

| SMILES | potassium efflux from trabecular meshwork cells as indicated by 86Rubidium efflux [1] | inhibition at 1 µM ([1]; Homo sapiens, at 1 μM, dose dependent) | inhibition at 0.01 µM ([1]; Homo sapiens, at 10 nM, dose dependent) | binding of 3H-glibenclamide to trabecular meshwork cells [2] | effect on intraocular pressure (rabbits) |
| --- | --- | --- | --- | --- | --- |
| CN(C)CCCN1c2ccccc2Sc2ccc(Cl)cc21 [Chlorpromazine, chlorpromazine] | inhibit potassium efflux | 20% |  |  |  |
| COc1ccc(Cl)cc1C(=O)NCCc1ccc(S(=O)(=O)NC(=O)NC2CCCCC2)cc1 [Glybenclamide, glibenclamide] | inhibit potassium efflux |  | 50% | have a receptor for glybenclamide | decreased IOP |
| CCCNC(=O)NS(=O)(=O)c1ccc(Cl)cc1 [chlorpropanamide] |  |  |  |  | decreased IOP |
| CC1=NS(=O)(=O)c2cc(Cl)ccc2N1 [diazoxide] |  |  |  |  | increased IOP significantly |
| Cc1ccc(S(=O)(=O)NC(=O)NN2CCCCCC2)cc1 [tolazamide] |  |  |  |  | decreased IOP |
